# Patent US3986930A, “Lipase activity determining method and reagent” (Dainippon Pharmaceutical Co., Ltd., priority 1974, dated 1976)
# Tests used:
# [1] = target: T1, Purified hog pancreatic lipase (type IV, Sigma) (Sus scrofa, UniProt P00591); assay: Hydrolysis of S-acyl substrates by purified hog pancreatic lipase, DTNB colorimetry at 412 nm, no PMSF; type: biochemical; conditions: for Relative activity (%): relative activity of BLME for lipase expressed as 100, 10 μl lipase solution
# T1 construct: purchased Sigma Chemical Co. type IV; host or cells: hog pancreas
# T1 sequence (P00591 1-450): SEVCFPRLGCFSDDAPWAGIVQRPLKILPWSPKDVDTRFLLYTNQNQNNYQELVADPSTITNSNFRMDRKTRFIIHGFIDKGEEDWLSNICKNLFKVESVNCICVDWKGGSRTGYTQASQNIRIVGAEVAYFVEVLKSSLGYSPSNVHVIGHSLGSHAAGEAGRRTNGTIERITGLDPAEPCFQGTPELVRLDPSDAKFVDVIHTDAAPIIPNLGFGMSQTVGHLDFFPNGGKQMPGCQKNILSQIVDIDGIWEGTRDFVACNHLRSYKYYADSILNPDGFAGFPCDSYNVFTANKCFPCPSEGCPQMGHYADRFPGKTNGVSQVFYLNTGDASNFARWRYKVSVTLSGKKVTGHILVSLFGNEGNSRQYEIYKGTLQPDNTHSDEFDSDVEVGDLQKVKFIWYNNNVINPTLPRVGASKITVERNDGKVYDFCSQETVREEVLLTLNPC
# Experimental: The determination of lipase activity by the present invention is carried out based on the following principle. That is, a solution of the substrate [an S-acyl compound of the formula (I), (II), (III) or (IV)] in an alcohol is added to the reaction buffer solution containing the sample with lipase and a chromogenic sulfhydryl reagent which reacts with a SH-group-containing compound [hereinafter, referred to as "SH-compound" ] released from the substrate by lipase. The amount of the released SH-compound or the intensity of the colored reaction mixture is proportional to the lipase activity in the sample, and therefore, the lipase activity can be determined by subjecting the resulting colored reaction mixture to colorimetric readings. As a sulfhydryl reagent, 5,5'-dithiobis(2-nitrobenzoic acid) [hereinafter, referred to as "DTNB" ] is used. In case of the measurement of lipase activity by using the S-acyl compound (I) (X is O) and DTNB, it is assumed that the reaction will proceed as shown in the following scheme: [drawing 6]
# (§1) To test tubes I and II are added (c) (1 ml) and a test sample (10 - 1,500 BALB unit of lipase or about 10 μl of human serum), and further to the test tube I is added (b) (20 μl; the concentration of PMSF: about 0.4 mM) and the mixture is allowed to stand at room temperature for 5 minutes to inactivate the existing serum caboxylesterase and/or arylesterase.
# (§2) To the test tube I is further added a substrate (a) (0.1 ml). The test tubes I and II are kept for 30 minutes at 38° C, and immediately to the test tube II is added the substrate (a) (0.1 ml) and to these test tubes I and II is added acetone (d) (2 ml) to stop the reaction. After mixed well, the tubes I and II were centrifuged (700 × g, for 10 minutes) to remove insoluble serum proteins and turbidity due to serum lipids and the substrate. The optical density of the supernatant of the tube I is measured at 412 nm in a cuvette of 1 cm light path (OD412 ^1 cm ) against that of the tube II.
# Purified hog pancreatic lipase (type IV, a product of Sigma Chemical Co.) is dissolved in 1 % human serum albumin solution to give a solution (10 μg/ml). The lipase activity in 10 μl of this solution (correspondingto 0.1 μ g of lipase) is determined in the same manner as described in Example 2 (substrate: BALB) in the absence of PMSF. The lipase activity measured is 800 BALB units.
# One μmole of the released SH-group from the substrate gives 4.75 of OD412 ^1 cm under the conditions described in Example 11, and therefore 1 mg of the purified hog pancreatic lipase is calculated to hydrolyze the S-acyl group of the BALB to give a free SH-group at the rate of 1,670 μmoles/30 minutes.
# The same lipase solution (10 μl) as prepared in Example 11 is treated in the same manner as described in Example 2 by using various S-acyl compounds as the substrate in the absence of PMSF. The relative activity of the S-acyl compounds are measured. The results are shown in Table 4, wherein the relative activity of BLME for lipase is expressed as 100.
# lipase = assay: Inhibition of lipase by PMSF (rate of hydrolysis of S-acyl substrate, DTNB colorimetry); type: biochemical; conditions: substrate BLME; 0 - 2.0 mM of PMSF
# Experimental: as §1
# (§3) To the test tube I is further added a substrate (a) (0.1 ml). The test tubes I and II are kept for 30 minutes at 38° C, and immediately to the test tube II is added the substrate (a) (0.1 ml) and to these test tubes I and II is added acetone (d) (2 ml) to stop the reaction. […] The optical density of the supernatant of the tube I is measured at 412 nm in a cuvette of 1 cm light path (OD412 ^1 cm ) against that of the tube II. […]
# (§4) In the same manner as described in Example 2, lipase of 1,100 BALB unit, carboxylesterase of 450 BALB unit or arylesterase of 60 BALB unit is treated (substrate: BALB), wherein the concentration of PMSF is varied, and then the rate of hydrolysis of BALB (relative activity) is measured.
# In the same manner as described in Example 3, lipase of 1,100 MPB unit, carboxylesterase of 140 MPB unit or arylesterase of 68 MPB unit is treated (substrate: MPB), wherein the concentration of PMSF is varied, and then the rate of hydrolysis of MPB (relative activity) is measured. […]
# carboxylesterase = assay: Inhibition of carboxylesterase by PMSF (rate of hydrolysis of S-acyl substrate, DTNB colorimetry); type: biochemical
# Experimental: as §1, §2
# Besides, test tube III is treated in the same manner as test tube I except that the enzyme inhibitor (b) is omitted.
# In the same manner as described in Example 2, the determination of lipase activity is carried out except that the substrate (a' ) is used instead of (a).
# as §4
# (§5) In the same manner as described in Example 3, lipase of 1,100 MPB unit, carboxylesterase of 140 MPB unit or arylesterase of 68 MPB unit is treated (substrate: MPB), wherein the concentration of PMSF is varied, and then the rate of hydrolysis of MPB (relative activity) is measured.
# In the same manner as described in Example 9, the determination of lipase activity is carried out by using BLME as the substrate. […]
# [2] = Storage / heat stability of reagent solutions in alcohol; type: physicochemical; conditions: heated at 120° C for 30 minutes
# Description: According to the present method, the measurement of lipase activity can be easily carried out by using so small amount of sample as 1/10 to 1/100 of that in the known methods described hereinbefore and within a shorter time. Moreover, the substrate becomes micellar merely by mixing and shaking with a buffer solution without addition of an emulsifier or vigorous stirring, and further, the solution of the substrate in an alcohol is stable at room temperature for more than 6 months.
# The enzyme inhibitor (e.g. PMSF) is preferably preserved in the form of an alcoholic solution (e.g. ethanolic solution). PMSF in an alcohol solution is stable even if it is heated at 120° C for 30 minutes, but if the solution is mixed with the substrate (I), (II), (III) or (IV) in an alcohol, PMSF undergoes chemical reaction with the substrate to lose its action as an esterase-inhibitor, and therefore, both of the solutions must be preserved separately.
# arylesterase = assay: Inhibition of arylesterase by PMSF (rate of hydrolysis of S-acyl substrate, DTNB colorimetry); type: biochemical
# Experimental: as §1, §3, §4, §5
structure (smiles),measurement,setting,value
"CCCC(=O)OC(CSC(=O)CCC)CSC(=O)CCC [2-butyroyloxy-1,3-bisbutyroylthiopropane]",relative activity as fraction of the relative activity of BALB,[1]; absence of PMSF,less than 1/10
CCCC(=O)OCC(CSC(=O)CCC)SC(=O)CCC (stereo not shown) [BALB],"lipase activity measured, OD412 (I-II) x 1,000","[1]; 0.1 μg hog pancreatic lipase, 30 minutes at 38° C, absence of PMSF",800 BALB units
same,activity for lipase (in words),[1]; absence of PMSF,extremely high activity
same,rate of hydrolysis of the S-acyl group to free SH-group by 1 mg of lipase,"[1]; per 1 mg purified hog pancreatic lipase, calculated from 4.75 OD412 per μmole SH","1,670 μmoles/30 minutes"
"CCCCCCCCCCCC(=O)OCCSC(=O)CCC [BLME, S-butyroyl-O-lauroylmercaptoethanol]",Relative activity (%),[1]; absence of PMSF,100%
"O=S(=O)(F)Cc1ccccc1 [PMSF, phenylmethylsulfonyl fluoride]",Inhibition of the lipase activity,lipase,negligible
same,50 % inhibitory concentration for carboxylesterase as fraction of that for lipase,carboxylesterase; substrate BALB,about 1/100
same,carboxylesterase activity inhibited,"carboxylesterase; substrate BLME, 0.2 mM or more of PMSF",≥ 90%
same,50 % inhibitory concentration for carboxylesterase as fraction of that for lipase,carboxylesterase; substrate MPB,about 1/200
same,stability of alcohol solution on heating,[2],stable
same,50 % inhibitory concentration for arylesterase as fraction of that for lipase,arylesterase; substrate BALB,1/300
same,50 % inhibitory concentration for arylesterase as fraction of that for lipase,arylesterase; substrate MPB,1/400
CCCC(=O)OC(CSC(=O)CCC)CSC(=O)CCC [drawing 28],Relative activity (%),[1]; absence of PMSF,35%
